Reference: patent US20230139883A1, “Peptides for Inducing Differentiation” (Shimadzu Corporation, priority 2020, published 2023)

Assays:
FGFR3 = experiment: Phage display selection against FGFR3 with Miseq analysis of the bound phages; type: binding; details: for 1 nM Num. of reads: phage library after panning Round 4, bound to 1 nM FGFR3; for 10 nM Num. of reads: phage library after panning Round 4, bound to 10 nM FGFR3; for 100 nM Num. of reads: phage library after panning Round 4, bound to 100 nM FGFR3; for 1 nM Ranking / 10 nM Ranking / 100 nM Ranking: rank by number of reads; for 1 nM Ranking: 1 nM FGFR3; for 10 nM Ranking: 10 nM FGFR3; for 100 nM Ranking: 100 nM FGFR3
Description: The collected phage library was mixed with 100 nM of FGFR3 solution and allowed to react overnight at 4° C. (Table 9: Panning Round 1). After the reaction, the binding phages were captured by magnetic beads modified with protein A, and washed three times with PBS-T, followed by eluting the bound phages with Gly-HCl (pH 2.0). After neutralizing with 2M Tris, the pages were infected to E. coli (TG1 strain). After 4 hours of incubation, helper phages were added, and the E. coli (TG1 strain) were allowed to produce phages overnight. Next, phage solution was prepared from the culture supernatant. The prepared phage solution was mixed with FGFR3 solution and allowed to react overnight at 4° C. (Table 9: Panning Round 2). After the reaction, the bound phages were eluted. Phage solution prepared in the same way was mixed with FGFR3 solution and allowed to react at 4° C. for 1 hour (Table 9: Panning Round 3). After the reaction, the bound phages were eluted. This operation was further repeated, and after Panning Round 4, the bound phages were eluted. Note that as the rounds proceeded, the number of washes with PBS-T was increased. (Table 9). The titer of the Output phage in each round was also determined. The titer of phage was determined from the number of colonies obtained by incubating the E. coli TG1 strain contacted with the phage at 37° C. overnight. The phage library eluted after panning of Example 7 (Table 9: Input phage (Round 4)) was subjected to Human IgG Fc-immobilized plate, and negative selection was performed by collecting unbound phages. The phage library was then acted to FGFR3 prepared to concentrations of 100 nM, 10 nM, and 1 nM. Bound phages were then collected. The genomic DNA of the collected phages was extracted, samples were prepared according to Illumina's protocol for Miseq, and a comprehensive analysis of the phage genomic DNA was performed. Among the sequences obtained, 20 sequences high incidence rates were selected (Table 11). The yeast cells acquired in the screening of Example 8 were seeded onto SDCAA agar plates and cultured. Fourteen single colonies formed on the agar plates were randomly selected, and for each clone, the peptide DNA sequence incorporated into the yeast expression plasmid was analyzed using the Sanger method (Table 12).

FGFR1 = experiment: Phage display selection against FGFR1 with Miseq analysis of the bound phages; type: binding; details: for 1 nM Num. of reads: phage library after panning Round 5, bound to 1 nM FGFR1; for 10 nM Num. of reads: phage library after panning Round 5, bound to 10 nM FGFR1; for 100 nM Num. of reads: phage library after panning Round 5, bound to 100 nM FGFR1; for 1 nM Ranking / 10 nM Ranking / 100 nM Ranking: rank by number of reads; for 1 nM Ranking: 1 nM FGFR1; for 10 nM Ranking: 10 nM FGFR1; for 100 nM Ranking: 100 nM FGFR1
Description: The collected phage library was mixed with 100 nM of FGFR3 solution and allowed to react overnight at 4° C. (Table 5: Panning Round 1). After the reaction, the binding phages were captured by magnetic beads modified with protein A, and washed three times with PBS-T, followed by eluting the bound phages with Gly-HCl (pH 2.0). After neutralizing with 2M Tris, the phages were infected to E. coli. After 4 hours of incubation, helper phages were added, and the E. coli were allowed to produce phages overnight. Next, phage solution was prepared from the culture supernatant. The prepared phage solution was mixed with FGFR3 solution and allowed to react overnight at 4° C. (Table 5: Panning Round 2). After the reaction, the bound phages were eluted. Phage solution prepared in the same way was mixed with FGFR3 solution and allowed to react at 4° C. for 1 hour (Table 5: Panning Round 3). After the reaction, the bound phages were eluted. This operation was repeated two more times, and after Panning Round 5, the bound phages were eluted. Note that as the rounds proceeded, the number of washes with PBS-T was increased. (Table 5). The titer of the Output phage in each round was also determined. The titer of phage was determined from the number of colonies obtained by incubating the E. coli TG1 strain contacted with the phage at 37° C. overnight. As shown in FIG. 3<Input phage (Round 5)>, the eluted phage library after panning was subjected to Human IgG Fc-immobilized plate, and negative selection was performed by collecting unbound phages. The phage library was then acted to FGFR1 prepared to concentrations of 100 nM, 10 nM, and 1 nM. Bound phages were then collected. The phagemid DNA of the collected phages was extracted, samples were prepared according to Illumina's protocol for Miseq, and a comprehensive analysis of the phagemid DNA was performed. Among the sequences obtained, 23 sequences with high incidence rates were selected (Table 6).

| Sequence | 1 nM Num. of reads (FGFR3) | 10 nM Num. of reads (FGFR3) | 100 nM Num. of reads (FGFR3) | 1 nM Ranking (FGFR3) | 10 nM Ranking (FGFR3) | 100 nM Ranking (FGFR3) | 1 nM Num. of reads (FGFR1) | 10 nM Num. of reads (FGFR1) | 100 nM Num. of reads (FGFR1) | 1 nM Ranking (FGFR1) | 10 nM Ranking (FGFR1) | 100 nM Ranking (FGFR1) |
| --- | --- | --- | --- | --- | --- | --- | --- | --- | --- | --- | --- | --- |
| CAAELAALEAELAALEGENVYTLGGLGKLMLLKYKLRELKGAC [F3-100n458] | 1304 | 789 | 1023 | 10 | 17 | 20 | – | – | – | – | – | – |
| CAAELAALEAELAALEGAWVEQVNRRGKLDGLKMKLQRLKLAC [100n51] | – | – | – | – | – | – | 704 | 1000 | 649 | 19 | 16 | 16 |
| CAAELAALEAELAALEGRPVRTVLTNGKLMVLKSKLQELKHAC [F3-100n182] | 1723 | 1143 | 1423 | 7 | 8 | 8 | – | – | – | – | – | – |
| CAAELAALDAELAALEGARLGKMSKVGKLIKLKEKLQNLKMAC [100n182] | – | – | – | – | – | – | 1428 | 1468 | 937 | 10 | 12 | 13 |
| CAAELAALEAELAALEGGRFSGLQEKGKLYGLKNKLHYLKRAC [100n368] | – | – | – | – | – | – | 2077 | 2177 | 1695 | 8 | 9 | 11 |
| CAAELAALEAELAALEGDCLAGGCSFGKLLNLKQKLIRLKRAC [100n108] | – | – | – | – | – | – | 873 | 1155 | 464 | 13 | 14 | 22 |
| CAAELAALEAELAALEGVKELTLGTVGKLMSLKYKLWSLKQAC [100n83] | – | – | – | – | – | – | 4939 | 6581 | 3079 | 5 | 5 | 6 |
| CAAELAALEAELAALEGPHPRHHHPHGKLKKLKRKLYKLKQAC [100n222] | – | – | – | – | – | – | 525 | 776 | 541 | 22 | 22 | 20 |
| CAAELAALEAELAALEGQKHFTLGGLGKLIVLKKQLRILKCAC [F3-100n174] | 1668 | 1223 | 1811 | 8 | 7 | 6 | – | – | – | – | – | – |
| CAAELAALEAELAALEGFGGVVYSCEWQAVYLKYKLMRLKQAC [100n17] | – | – | – | – | – | – | 8443 | 10095 | 8500 | 1 | 1 | 1 |
| CAAELAALEAELAALEGGRDRTLELSGKLLVLKSKLHWLKHAC [F3-100n251] | 3203 | 2387 | 3153 | 2 | 1 | 2 | – | – | – | – | – | – |
| CAAELAALEAELAALEGMSNHTLGSIGKLMLLKDKLESLKEAC [100n1074] | – | – | – | – | – | – | 756 | 688 | 333 | 16 | 23 | 31 |
| CAAELAALEAELAALEGGMATDHMNRGKLYRLKNKLHFLKIAC [100n781] | – | – | – | – | – | – | 352 | 262 | 228 | 26 | 48 | 40 |
| CAAELAALEAELAALEGNTANDPTASGKLKYLKYKLSNLKHAC [100n606] | – | – | – | – | – | – | 872 | 894 | 609 | 14 | 18 | 18 |
| CAAELAALEAELAALEGGDEVPHVGGGKLKMLKYQLNNLKHAC [100n417] | – | – | – | – | – | – | 721 | 1010 | 762 | 18 | 15 | 14 |
| CAAELAALEAELAALEGSSMDHVAYTGKLRMLKFRLELLKGAC [100n1543] | – | – | – | – | – | – | 233 | 276 | 216 | 37 | 43 | 43 |
| CAAELAALEAELAALEGVPALVGQEGGKLVLLKWKLWRLKNAC [100n36] | – | – | – | – | – | – | 483 | 677 | 398 | 24 | 24 | 28 |
| CAAELAALEAELAALEGLGGFFNLRTGKLDELKMKLQHLKQAC [100n84] | – | – | – | – | – | – | 795 | 854 | 563 | 15 | 20 | 19 |
| CAAELAALEAELAALEGVGRLYHMASGKLDRLKGKLMVLKYAC [100n82] | – | – | – | – | – | – | 6561 | 7109 | 4896 | 3 | 4 | 5 |
| CAAELAALEAELAALEGINAVPMSGRGKLYSLKNKLHYLKNAC [100n12] | – | – | – | – | – | – | 273 | 267 | 258 | 30 | 46 | 34 |
| CAAELAALEAELAALEGAKKAEEGQKGKLYRLKNKLHYLKSAC [100n423] | – | – | – | – | – | – | 561 | 867 | 439 | 21 | 19 | 26 |
| CAAELAALEAELAALEGAVGDKRKSKGKLMMLKQKLELLKGAC [100n85] | – | – | – | – | – | – | 6769 | 9230 | 7482 | 2 | 2 | 2 |
| CAAELAALEAELAALEGSVALGNKAGGKLRLLKLKLELLKDAC [100n1314] | – | – | – | – | – | – | 260 | 406 | 238 | 34 | 31 | 38 |
| CAAELAALEAELAALEGADAFTLGSAGKLMMLKEKLNHLKHAC [100n1348] | – | – | – | – | – | – | 349 | 473 | 346 | 27 | 30 | 30 |
| CAAELAALEAELAALEGREPSGAMGSGKLKRLKYKLQNLKHAC [100n1793] | – | – | – | – | – | – | 493 | 493 | 395 | 23 | 29 | 29 |
| CAAELAALEAELAALEGQTFMNPHRLGKLDKLKLKLVHLKRAC [100n8] | – | – | – | – | – | – | 4243 | 3717 | 1974 | 7 | 7 | 8 |
